From patent US10905757B2, “Cross-reactive T cell epitopes of HIV, SIV, and FIV for vaccines in humans and cats” (priority 2012, dated 2021)
Entries after “also recorded” stand apart in the source; their conditions may differ. Ends that are not written are not given here.

Key:
Assay type in all cases: cell-based, human
[1] = system: CD3+CD8+ T cells from HIV+ subjects; experiment: CFSE-proliferation, CD3+CD8+ T cells from HIV+ subjects; conditions: for CD8^+ T-cell Responder Frequency: responders/tested; for responder frequency of CD8+ T-cell proliferation to individual F3 peptides: eight F3 responders
Experimental: (§1) 2×10^5-5×10^5 CFSE labeled PBMCs were incubated with 15-20 μg of peptides in 600 μL of RPMI media with 10% FBS for 5 days at 37° C. (5% CO2). After harvesting, they were labeled with allophycocyanin (APC), APC-H7, and Pacific Blue labeled monoclonal antibodies (MAb) to human CD3, CD4, and CD8, respectively and analyzed for T-cell proliferation by flow cytometry using BD LSRII (BD Biosciences). The proliferating CD4^+ or CD8^+ T cell populations were defined from the CD3^+ cell population as either CD3^+CD8^+ or CD3^+CD4^+T cells (mutually exclusive) with low CFSE (CFSE^low) staining.
(§2) Flow cytometry (FACS) for carboxyfluoresein diacetate succinimide ester (CFSE)-proliferation and intracellular cytotoxin staining (ICS). The CFSE-proliferation analysis was performed on PBMC according to the manufacturer's protocol (Invitrogen, Carlsbad, Calif.) and processed as previously described (Lichterfeld et al. (2004)). Modifications consisted of using 2.0-5.0×10^5 CFSE-labeled cells stimulated for 5 days (37° C., 5% CO^2) with 30 μg/well of total peptides in a pool (15 μg/well for individual peptide, Table 10) or 5 μg/mL PHA in AIM V medium containing 25 μg/mL of gentamycin and 10% heat-inactivated human serum. Subsequently these cells were harvested and labeled with the LIVE/DEAD fixable yellow dye (Invitrogen) and then treated 5 min with anti-CD16/CD32 antibody (Biolegend, San Diego, Calif.) for blocking non-specific binding before phenotype-specific antibodies. The following antibodies were used for the CFSE-proliferation analysis: anti-CD4 APC, anti-CD3 APC-H7, and anti-CD8 Pacific Blue (BD Biosciences, San Jose, Calif.).
(§3) In both analyses, 1.0-2.0×10^4 cells were fixed in phosphate-buffered saline (PBS) containing 2% paraformaldehyde and analyzed on BD LSRII using […] Software (BD Biosciences), with a positive threshold of 3% CFSE^low for CFSE-proliferation and 1% T cells expressing cytotoxin for ICS. The final value for each subject was derived after subtraction of the subject's medium control and the average value of peptide-stimulated cells from uninfected control subjects.
(§4) Flow cytometry (FACS) for measuring CFSE-proliferation and intracellular cytokine staining (ICS). Carboxyfluorescein diacetate succinimide ester (CFSE)-proliferation analysis was performed according to the manufacturer's protocol (Invitrogen) and processed as previously described (Lichterfeld et al. 2004) using the following modification: 2.5-5.0×10^5 CFSE-labeled PBMC stimulated for 4-5 days (37° C., 5% CO2) with 15-30 μg of peptides in culture media (AIM V medium, 25 μg/mL gentamycin, and 10% heat-inactivated fetal bovine serum). The ICS analysis was performed as previously described (Horton et al. 2007; Pattacini et al. 2012).
(§5) The antibodies used for the proliferation analysis consisted of anti-CD4 allophycocyanin (APC) anti-CD3 APC-H7, and anti-CD8 Pacific Blue, and those for ICS were anti-CD3 APC-H7, anti-CD4 BD Horizon V450, anti-CD8 FITC, anti-granzyme B (GrzB) Alexa 700, anti-granzyme A (GrzA) PE (BD Biosciences, Cat #555349, 560176, 558207, 560345, 555366, 560213, 558904), and anti-perforin PerCP (Abcam, Cat #ab86319). Both analyses were performed with BD LSRII and […]™ Software (BD Biosciences), using a positive threshold of >1% CFSE^low for CFSE-proliferation except for ICS studies with threshold of >0.1% T cells expressing cytotoxin. The final value for each subject was derived after subtracting the result of each HIV^+ subject with the media control followed by subtraction with the average response of the media-control subtracted HIV^− subjects.

[2] = system: CD3+CD4+ T cells from HIV+ subjects; experiment: CFSE-proliferation, CD3+CD4+ T cells from HIV+ subjects; conditions: for CD4^+ T-cell Responder Frequency: responders/tested
Experimental: as §1, §2, §3, §4, §5

[3] = system: CD4+ or CD8+ T cells from HIV+ subjects; experiment: Intracellular cytotoxin staining (ICS), CD4+ or CD8+ T cells from HIV+ responders; conditions: for cytotoxin / CTL-associated activity (in words): RT pools and peptides; for cytotoxin and CD107a expression in CD4+ and CD8+ T cells (in words): p24 peptides
Experimental: Briefly, 1×10^6PBMCs (freshly isolated) are stimulated with 20 μg of peptides for 6 hours in a total volume of 200 μL in a 96-well plate in presence of Golgi transport inhibitor (37° C., 5% CO2). […] Cells were stained with the LIVE/DEAD® fixable yellow dye (Invitrogen, Eugene, Oreg.). […] The flow cytometry data is collected using BD LSRII and analyzed with the FACS DIVA software.
The cells were subsequently fixed and permeabilized with Cytofix/Cytoperm solution (BD Biosciences) before reaction with anti-cytotoxin antibodies. The antibodies consisted of anti-CD3 APC-H7, anti-CD4 BD Horizon V450, and anti-CD8 FITC followed by anti-GrzB Alexa 700 and anti-GrzA PE (all from BD Biosciences), and anti-perforin PerCP (Abcam, Boston, Mass.).
as §3
Flow cytometry (FACS) for measuring CFSE-proliferation and intracellular cytokine staining (ICS).
Both analyses were performed with BD LSRII and […]™ Software (BD Biosciences), using a positive threshold of >1% CFSE^low for CFSE-proliferation except for ICS studies with threshold of >0.1% T cells expressing cytotoxin.

[4] = system: CD8+ T cells from HIV+ subjects; experiment: Intracellular cytotoxin staining (ICS: perforin, GrzA, GrzB, CD107a), CD8+ T cells from HIV+ subjects
Experimental: Briefly, 1×10^6PBMCs (freshly isolated) are stimulated with 20 μg of peptides for 6 hours in a total volume of 200 μL in a 96-well plate in presence of Golgi transport inhibitor (37° C., 5% CO2). The cells are processed as previously described (Horton et al. (2007)). Cells were stained with the LIVE/DEAD® fixable yellow dye (Invitrogen, Eugene, Oreg.). The monoclonal antibodies fluorochome-conjugated to human cytokines used are: APC-H7 to CD3 (clone SK7); BD Horizon V450 to CD4 (clone RPA-T4); Qdot to CD8 (clone 3B5); PE-cy7 to IFN-γ (clone 4S.B3); APC to IL-2 (clone MQ1-17H12) PerCP to perforin (clone B-D48); Alexa F1.700 to granzyme-B (clone GB11) and PE to granzyme-A (clone CB9). The flow cytometry data is collected using BD LSRII and analyzed with the FACS DIVA software.
The ICS analysis (Horton et al. (2007)) involved stimulating 0.5-1.0×10^6 freshly isolated PBMC for 6 h with the same peptide stimulant and culture conditions as the proliferation analysis in the presence of 1 μg/mL of Golgi transport inhibitor and monensin followed by labeling with LIVE/DEAD fixable yellow dye and then treatment with anti-CD16/CD32 antibody and T-cell phenotypic antibodies. The cells were subsequently fixed and permeabilized with Cytofix/Cytoperm solution (BD Biosciences) before reaction with anti-cytotoxin antibodies. The antibodies consisted of anti-CD3 APC-H7, anti-CD4 BD Horizon V450, and anti-CD8 FITC followed by anti-GrzB Alexa 700 and anti-GrzA PE (all from BD Biosciences), and anti-perforin PerCP (Abcam, Boston, Mass.).
as §3, §4, §5

[5] = small 9-13mer peptides, yr 4, responders to Fp9 or Fp14 pool via both proliferation and IFNγ
[6] = large 13-15mer peptides, yr 2, responders to Fp9 or Fp14 pool via CFSE proliferation

Molecule | CD8^+ T-cell Responder Frequency [1, 5] | CD8^+ T-cell Responder Frequency (%) [1, 5] | CD4^+ T-cell Responder Frequency [2, 5] | CD4^+ T-cell Responder Frequency (%) [2, 5] | cytotoxin and CD107a expression in CD4+ and CD8+ T cells (in words) [3] | other results
Fp14-1/2a (NTAEVKLYL) | 4/10 | (40) % | 1/10 | (10) % | – | –
Fp14-3/4g (YLKQSLSIA) | 6/10 | (60) % | 0/10 | (0) % | – | –
NPWNTPVFAIKKK [F3-1] | – | – | – | – | – | cytotoxin / CTL-associated activity (in words) [3]: induced CTL-associated activities
WRMLIDFRVLNKL [F3-4] | – | – | – | – | – | cytotoxin expression / CTL-associated activity in CD8+ T cells (in words) [4]: highest frequency and levels; cytotoxin / CTL-associated activity (in words) [3]: induced CTL-associated activities
Fp14-2/3c (AEVKLYLKQSL) | 9/10 | (90) % | 5/10 | (50) % | – | –
EQQAEARFAPARM [Fp9-1] | – | – | – | – | – | CD8^+ T-cell Responder Frequency (%) [1, 6]: (14) %; CD8^+ T-cell Responder Frequency [1, 6]: 1/7; CD4^+ T-cell Responder Frequency (%) [2, 6]: (0) %; CD4^+ T-cell Responder Frequency [2, 6]: 0/7
TPVFAIKKKSGKWRM [F3-2] | – | – | – | – | – | responder frequency of CD8+ T-cell proliferation to individual F3 peptides [1]: 3 of 8
Fp14-2/3b (AEVKLYLKQ) | 3/10 | (30) % | 1/10 | (10) % | – | –
QEQNTAEVKL [Fp14-1a] | – | – | – | – | high cytotoxin and CD107a expression | –
Fp9-1/2a (EARFAPARM) | 5/9 | (56) % | 0/9 | (0) % | – | –
AEVKLYLKQSLSI [Fp14-3d] | – | – | – | – | – | Cytotoxins ([3]; responders to Fp9 or Fp14 peptide pools): Low Cytotoxins (only CD8)
IDFRVLNKLTDKGA [F3-5] | – | – | – | – | – | responder frequency of CD8+ T-cell proliferation to individual F3 peptides [1]: 3 of 8
CSCC[C@H](NC(=O)[C@H](Cc1c[nH]c2ccccc12)NC(=O)[C@H](CC(N)=O)NC(=O)[C@H](CCCCN)NC(=O)[C@@H](NC(=O)[C@H](C)NC(=O)[C@H](C)NC(=O)[C@H](CC(=O)O)NC(=O)[C@@H](N)[C@@H](C)O)C(C)C)C(=O)N[C@H](C(=O)O)[C@@H](C)O [Sp14-1c] | – | – | – | – | slightly lower number of responses | –
AEQASQEVKN [Hp15-1c] | – | – | – | – | high cytotoxin and CD107a expression | –
VKNWMTQTL [Sp14-1a] | – | – | – | – | slightly lower number of responses | –
AEARFAPARMQCRAW [Fp9-2] | – | – | – | – | – | CD8^+ T-cell Responder Frequency (%) [1, 6]: (43) %; CD8^+ T-cell Responder Frequency [1, 6]: 3/7; Fp9 responders whose CD8+ T cells proliferate to individual 13-15mer peptide ([1]; seven Fp9 responders): 3 of 7; CD4^+ T-cell Responder Frequency (%) [2, 6]: (14) %; CD4^+ T-cell Responder Frequency [2, 6]: 1/7
LYLKQSLSI [Fp14-3/4e] | – | – | – | – | high frequency of cytotoxin expression | –
Fp9-2/3b (APARMQCRA) | 3/9 | (33) % | 0/9 | (0) % | – | –
Fp9-3f (APARMQCRAWYL) | 4/9 | (44) % | 1/9 | (11) % | – | –
KKKSGKWRMLIDFRV [F3-3] | – | – | – | – | – | cytotoxin / CTL-associated activity (in words) [3]: induce cytotoxin expression
Fp9-3e (ARMQCRAWYL) | 3/9 | (33) % | 1/9 | (11) % | – | –
QASQEVKNWM [Hp15-1a] | – | – | – | – | high cytotoxin and CD107a expression | –
QNTAEVKLYL [Fp14-1b] | – | – | – | – | high frequency of cytotoxin expression; also recorded: high cytotoxin and CD107a expression | –
